Earlier results on one compound are cited in patent publication US20220354783A1, “INJECTABLE PROLONGED-ACTION COMPOSITIONS FOR USE IN THE TREATMENT OF NAIL DISEASE AND/OR FOR PROMOTING NAIL GROWTH” (EDIX-O SARL, priority 2018, published 2022).

Structures are written as SMILES.

This data set has as its system nail diseases. To be noted: oral forms, 250 mg per day for 6 to 12 weeks.

As to `CN(C/C=C/C#CC(C)(C)C)Cc1cccc2ccccc12` [terbinafine], the “total healing in clinical studies” value is given as 38%.
